Results taken from a melting point compilation (Tetko et al.).

conditions: a range is the spread between reports

melting point	Structure (SMILES)
85 to 86 °C	CC(=O)CC(=O)Nc1ccccc1
116 to 117 °C	O=C(O)Cc1ccc(Br)cc1
137 to 138 °C	O=C(c1ccccc1)c1ccc([N+](=O)[O-])cc1
9.5 to 10 °C	Cc1ccnc2ccccc12
212 to 214 °C	CC(C(=O)O)c1ccc(N2Cc3ccccc3C2=O)cc1 (stereo unspecified)
11 to 12 °C	Cc1cccc(O)c1
34 to 34.8 °C	COc1ccc(C=O)c2ccccc12
172 to 177 °C	Cc1ccc2c(c1)C(=O)c1ccccc1C2=O
303 to 307 °C	CCCC(N)C(=O)O (racemic)
61 to 66 °C	Clc1cccc(Cl)c1Br
42 to 43 °C	O=C(CC(=O)C(F)(F)F)c1cccs1
-39 to -35 °C	C=CCC(=O)O
63 to 65 °C	Nc1cccc(N)c1
156 to 157 °C	NC(=O)c1ccncc1
208 °C	O=[N+]([O-])c1ccc2nc[nH]c2c1
127 to 129 °C	O=C(C=NO)c1ccccc1
33 to 36 °C	CC(C)(C)C(=O)O
27 to 28 °C	CNC(C)=O
130 to 133 °C	O=C(O)c1cc(F)ccc1F
76 to 78 °C	Cc1ccc([N+](=O)[O-])cc1Br
76 to 76.5 °C	Cc1ccc2oc(=O)ccc2c1

melting point	Structure (SMILES)
-46.5 to -46 °C	Clc1ccccn1
200 to 201 °C	Cc1c(C2(c3cc(C(C)C)c(O)c(Br)c3C)OS(=O)(=O)c3ccccc32)cc(C(C)C)c(O)c1Br
130 °C	NC(=O)c1cccnc1
40 to 42 °C	O=C1CCc2ccccc21
60 to 60.8 °C	OC(c1ccccc1)c1ccc(Cl)cc1 (stereo unspecified)
300 °C	c1ccc2[nH]c(-c3cscn3)nc2c1
97 °C	c1ccc2n[nH]nc2c1
126 to 129 °C	COc1cc(C=CC(=O)c2ccccc2O)ccc1O
180 to 182 °C	Oc1ccc2cccc(O)c2c1
-8 to -7 °C	COc1cccc(C(C)=O)c1
-30 to -29.5 °C	CCOc1ccccc1
15 to 16 °C	CC(=O)c1ccncc1
121 to 122 °C	O=C(O)c1cc(F)cc(F)c1
67.5 to 69 °C	COC(=O)c1cccc(C(=O)OC)c1
36 to 38 °C	C=C(CC(=O)OC)C(=O)OC
205 to 207 °C	CC(=O)Nc1ccc(C#N)cc1
-62.3 to -62 °C	CCc1ccc(C)cc1
16 to 19 °C	CC(C)(C)c1ccc(Br)cc1
172 to 173 °C	N#Cc1ccccc1C(N)=O
202 to 206 °C	O=C(O)C=Cc1ccccc1C(F)(F)F

The next lines start with the compound.

Structure (SMILES)	melting point
C=CCCCC	-140 °C
Cc1ccc(N)cc1	43 to 44 °C
CCCCCCCCCl	-58 to -57.8 °C
C=C(C)C	-140 °C
C1CO1	-112 to -111 °C
CCCC(C)(C)CC	-126 °C
O=C1CCC1	-52 to -50.9 °C
C[Si]1(C)O[Si](C)(C)O[Si](C)(C)O1	60 to 65 °C
O=C1CN(N=Cc2ccc([N+](=O)[O-])o2)C(=O)N1	263 to 268 °C
O=c1cn[nH]c(=O)[nH]1	274 to 276 °C
c1ccc2c(c1)cc1ccc3cccc4ccc2c1c34	176 to 179 °C
COc1ccc(C=O)cc1	-1 to 1 °C
O=C=S	-139 °C
CCCCCCCCCCCCCCCCCC(C)=O	55 to 57 °C
CC(C)(C)C1CCC(=O)CC1	48.5 to 49 °C
CCc1ccccc1N	-47 to -44 °C
CC(C)=C(C)C	-75 to -74 °C
C1COCCN1	-5 to -4.8 °C
C=CC#N	-84 to -83.5 °C
OC1CCCCCCCCC1	39.9 to 40.5 °C
CCCOC1CCC2(C)C(CC(=O)C3C2CCC2(C)C(OCCC)CCC32)C1 (stereo unspecified)	161 to 163 °C
N#CSCc1ccccc1	42 to 43 °C
Cc1ccc(N)cc1Cl	23 to 26 °C

Structure (SMILES)	melting point
O=C1CSC(=O)N1	125 to 128 °C
CCCCS(=O)(=O)CCCC	44 to 45 °C
ClCCBr	-18 to -16.7 °C
C1CCC1	-91 to -90.6 °C
OCCOCCOCCO	-7 to -4 °C
CCCC(C)=C(C)C	-115 °C
Cc1cc(C)c(C)c(C)c1	-24 to -23.7 °C
O=C1CCCCCCCCCCC1	60 to 61 °C
CCCOC(=O)CC	-76 to -75.9 °C
Clc1cccc(-c2ccccc2)c1	16 to 18 °C
Cc1c2ccccc2cc2ccccc12	78 to 81.5 °C
CCCCCCCCCCCCCCCCCCCCCCCCCCCCCCCC	69.7 to 70 °C
CCCCCCCCCCC	-26 to -25.6 °C
ClCCCCl	-100 to -99.5 °C
O=[N+]([O-])c1cccc2cccnc12	88 to 90 °C
CC(C)N(CCC(C(N)=O)(c1ccccc1)c1ccccn1)C(C)C (stereo unspecified)	94.8 °C
Cc1ccc(N=C=O)cc1N=C=O	20 to 21 °C
N#CN	44 to 45.6 °C
CCCCCCCCCCCCCCCCC	21 to 22 °C
C=CC(=O)O	12.5 to 13.5 °C
Cc1ccc(C)c(N)c1	12 to 15.5 °C
Nc1ccc(Cl)cc1[N+](=O)[O-]	116 to 118 °C
